Experimental data published in PubChem BioAssay (NCI).
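These data come from cells grown in 96-well plates and exposed to compound for 48 hours at five concentrations. The concentration for 50% growth inhibition is given as GI50. TGI: concentration producing complete growth inhibition.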

How the values were obtained:
Assay in all cases: DTP human tumour cell line panel, 48 h
MDA-MB-435 = tested on: MDA-MB-435
OVCAR-3 ovarian = tested on: OVCAR-3 ovarian
TK-10 renal = tested on: TK-10 renal
PC-3 prostate = tested on: PC-3 prostate
UACC-62 melanoma = tested on: UACC-62 melanoma
SN12C renal = tested on: SN12C renal
HCT-116 colon = tested on: HCT-116 colon
CCRF-CEM leukemia = tested on: CCRF-CEM leukemia
M19-MEL melanoma = tested on: M19-MEL melanoma
DLD-1 colon = tested on: DLD-1 colon

Structure (SMILES)	GI50 (MDA-MB-435)	TGI (MDA-MB-435)	GI50 (OVCAR-3 ovarian)	TGI (OVCAR-3 ovarian)	GI50 (TK-10 renal)	TGI (TK-10 renal)	GI50 (PC-3 prostate)	TGI (PC-3 prostate)	GI50 (UACC-62 melanoma)	TGI (UACC-62 melanoma)	GI50 (SN12C renal)	TGI (SN12C renal)	GI50 (HCT-116 colon)	TGI (HCT-116 colon)	GI50 (CCRF-CEM leukemia)	TGI (CCRF-CEM leukemia)	TGI (M19-MEL melanoma)	TGI (DLD-1 colon)
Nc1ncnc2c1c(-c1ccc(Oc3ccccc3)cc1)nn2C[C@@H]1SSC[C@@H]1O	0.101 µM	0.256 µM	0.277 µM	1.04 µM	0.705 µM	2.75 µM	1.72 µM	10.1 µM	0.193 µM	0.411 µM	0.762 µM	11 µM	0.101 µM	1.64 µM	0.061 µM	> 59.7 µM	–	–
CC(C)(C)[Si](C)(C)OCC1OC(n2cnc3c(N)ncnc32)C(O)C1O (stereo not given)	–	> 100 µM	–	> 100 µM	–	> 100 µM	–	> 100 µM	–	> 100 µM	–	> 100 µM	–	> 100 µM	–	> 100 µM	–	–
CN(C)C(=O)SC1=C(c2c(Cl)cccc2Cl)C(=O)c2ccccc21	4.54 µM	15.9 µM	1.96 µM	3.8 µM	3.5 µM	9.64 µM	7.95 µM	22.8 µM	3.85 µM	8.24 µM	6.18 µM	17.7 µM	1.75 µM	3.28 µM	2.67 µM	9.27 µM	–	–
c1ccc(CC(NCCNC(Cc2ccccc2)c2ccccc2)c2ccccc2)cc1 (stereo not given)	0.817 µM	2.22 µM	0.398 µM	1.46 µM	1.46 µM	4.21 µM	0.409 µM	1.78 µM	0.491 µM	1.86 µM	0.517 µM	1.96 µM	0.2 µM	0.486 µM	0.49 µM	2.57 µM	–	–
O=C(Nc1ccc(Cl)cc1)Nc1ccccc1CNc1nc(Nc2ccc(OCCN3CCCC3)cc2)ncc1Cl	0.935 µM	1.93 µM	0.935 µM	1.71 µM	0.982 µM	1.91 µM	1.07 µM	2.35 µM	0.903 µM	1.78 µM	0.913 µM	1.74 µM	0.927 µM	1.85 µM	1.32 µM	3.43 µM	–	–
COc1ccc2[nH]c(-c3ccccc3)cc2c1	> 100 µM	> 100 µM	> 100 µM	> 100 µM	> 100 µM	> 100 µM	> 100 µM	> 100 µM	92.5 µM	> 100 µM	> 100 µM	> 100 µM	> 100 µM	> 100 µM	68.5 µM	> 100 µM	–	–
C/C(=N/O)c1ccc2c(c1)C(=NO)c1cc(/C(C)=N/O)ccc1-2	–	–	–	39.3 µM	–	–	–	–	–	38.4 µM	–	33.6 µM	–	64.6 µM	–	–	64.8 µM	52.8 µM
C=CC(=O)Nc1cccc(Nc2nc(Nc3ccc(OCCOC(F)F)cc3)ncc2F)c1	2.21 µM	7.22 µM	2.32 µM	14.1 µM	0.515 µM	2.93 µM	4.01 µM	27.1 µM	1.73 µM	11.1 µM	2.54 µM	16.2 µM	2.69 µM	20 µM	5.17 µM	94 µM	–	–
